# Measurements published in article PMC12212008 (Drug Design, Development and Therapy, 2025).
# How the values were obtained:
# p53-Y220C mutant = details: covalent, targets Cys220; cited from earlier work
# T-p53C-Y220C [1] = molecular target: T1, T-p53C-Y220C (Homo sapiens, UniProt P04637, M133L/N239Y/N268D/V203A/Y220C); test: DSF thermal shift of T-p53C-Y220C; format: binding; details: for T-p53C-Y220C ∆Tm ± SD, concentration-dependent DSF: 1000 µM
# T-p53C-Y220C [2] = molecular target: T1, T-p53C-Y220C; test: Intact protein mass spectrometry of T-p53C-Y220C; format: binding; details: protein-to-compound ratio 1:100, 24 h, 20 °C
Compound,increase of Tm of the Y220C mutant (p53-Y220C mutant),"T-p53C-Y220C ∆Tm ± SD (T-p53C-Y220C [1]; 250 µM, 24 h, 20 °C)","incubation time at which ∆Tm of T-p53C-Y220C plateaued / reached maximum (T-p53C-Y220C [1]; 1 mM, 20 °C, time-dependent DSF)","T-p53C-Y220C ∆Tm, time-dependent DSF (T-p53C-Y220C [1]; 1 mM, 10 min incubation, 20 °C)","T-p53C-Y220C ∆Tm ± SD, concentration-dependent DSF (T-p53C-Y220C [1]; 30 min)","T-p53C-Y220C ∆Tm ± SD (T-p53C-Y220C [1]; 1 mM, 30 min, 20 °C)","T-p53C-Y220C ∆Tm ± SD, concentration-dependent DSF (T-p53C-Y220C [1]; 24 h)",arylated T-p53C-Y220C protein species detected by intact MS (T-p53C-Y220C [2])
C=C(C)C(=O)n1cc(C)c2c(-c3ccc4c(c3)CCN(C)C4)cncc21 [KG13],levels comparable to those of the WT protein,–,–,–,–,–,–,–
"N#Cc1cnc(Cl)cn1 [SN006/7-3, 5-chloro-pyrazine-2-carbonitrile]",–,2.87 °C,about 2 h,2.30 °C,2.65 °C,2.75 °C,3.55 °C,"three, four, or five times"
